Experimental findings from patent publication US20040126359A1, “Hedgehog” (priority 2001, published 2004) are described below.

Experiment [1] relates to CD4+ T-cells. The experiment can be described thus: Real time PCR of Shh, ptc, Gli1 and bcl-2 transcripts in sub-optimally activated CD4+ T-cells. The class given is cell-based, mouse. The method, then:
CD4^+ T-cells were cultured as above in 48 well plates with and without addition of exogenous Shh or 5E1. At various time points (24 hr, 48 hr, 72 hr) post-activation, the CD4^+ T-cells were spun at 300 g for 7 mins then resuspended in lysis buffer provided as part of the RNeasy kit used for the RNA isolation (Qiagen Ltd, Crawley, UK). Any contaminating DNA was then digested by treating the RNA with DnaseI (Life Technologies) according to the manufacturer's instructions. In order to check that no contaminating DNA remained, a PCR was carried out using genomic β-actin primers (forward primer 5′-CCACCAACTGGGACACATG-3′ (SEQ ID NO:10) and reverse primer 5′-[…]-3′ (SEQ ID NO:11)) (MWG-Biotech AG). The PCR program was as follows: 35 cycles of 30 secs at 94° C., 1 min at 58° C., 2 mins at 72° C. followed by a 5 min 72° C. extension then 4° C. hold. This was carried out on a PTC-200 Peltier thermal cycler (MJ Research Inc., Massachusetts, USA).
Unless otherwise stated all materials for real time PCR were supplied by Applied Biosytems UK, Cheshire, UK. 400 ng of RNA was reverse transcribed using the Multiscribe RT kit. Samples were incubated for 10 min at 25° C., 40mins at 48° C. then 5 min at 95° C. to allow the reverse transcription to take place. cDNA samples were then diluted 1:5 in nuclease-free water (Promega). The PCR step was carried out using Taqman Universal PCR Mastermix, a primer/probe mix specific to the gene of interest and a primer/probe mix specific to 18s rRNA control reagent. The following primer/probe sequences were used:
These probes were all labelled with the fluorescent dye fam (6-carboxy-fluorescein). The primer/probe mix for 18S was supplied by Applied Biosystems which was labelled with the fluorescent dye vic™. Each cDNA sample was run in duplicate 25 μl volumes on a capped 96-well optical reaction plate. The plate was run in the ABI Prism 7700 sequence detector using SDS software. The PCR conditions were as follows: 50° C. for 2 min, 95° C. for 10 min then 40 cycles of 15 sec at 95° C. and 1 min at 60° C. The software then analysed the data and output a pair of ‘ct’ values for each sample. ‘Ct’ is the number of cycles needed to result in a signal crossing a set threshold. Each sample yielded two ct values, one for the gene of interest and one for the 18S house keeping control. The ct values were then transported to a Microsoft Excel spreadsheet and analysed to give a value representing the relative mRNA levels present for the gene of interest linearly as per the manufacturers instructions.
In order to analyse the mechanisms of Shh amplification of TCR mediated activation in CD4^+ T-cells, the kinetics of expression of components of the Shh signalling pathway and bcl-2 were analysed in activated CD4^+ T-cells in the presence and absence of exogenous Shh. CD4^+ T-cell cultures were set up as before, sub-optimally activated with anti-CD3/CD28 and Shh was added at t=0. RNA was extracted at 24, 48 and 72 hr post-activation. It has been reported that a 2× or greater increase in the transcription of any gene on at least 2 occasions is considered to be significant (Chtanova et al and Granucci et al).

The test system of the next experiment is human CD8 T-cells. The experiment can be described thus: Proliferation of human CD8 T-cells cultured with Shh N-terminal active peptide (3H thymidine). The class given is cell-based. The note with it: activated CD8+ T-cells; dose dependent.
Experiment [2] deals with CD4+ T-cells. The experiment can be described thus: T-cell proliferation assay (3H-TdR incorporation). It counts as cell-based, mouse. The method, then: Single cell suspensions from pooled C57BL/6 mouse spleens were applied to negative selection CD4^+ T-cell columns (R&D systems Europe Ltd, Abingdon, UK) as per manufacturers instructions. Purity was checked using FACS staining with an anti-CD4^FITC antibody and this ranged between 88-93%.
CD4^+ T-cells were cultured in RPMI 1640 medium (Life Technologies, Paisley, UK) supplemented with 10% FCS (Life Technologies), 2 mM L-glutamine, (Sigma, Dorset, UK), 20 μg/ml penicillin/streptomycin (Life Technologies) and […] 2-mercaptoethanol (Sigma). Anti-CD3/28 antibody activation was carried out at 2 concentrations, namely ‘sub-optimal’ (anti-CD3 at 0.25 μg/ml and anti-CD28 at 0.1 μg/ml) and ‘optimal’ (anti-CD3 at 1 μg/ml and anti-CD28 at 5 μg/ml). Tissue culture plates (Corning Inc., NY, USA) were coated with the anti-CD3 antibody for 90 min at 37° C. prior to addition of the CD4^+ T-cells. Recombinant mouse Shh amino-terminal peptide (R&D systems Europe Ltd, Abingdon, UK) was added into cultures at a concentration of 500 ng/ml. 5E1 antibody was used at either 20 μg/ml or 50 μg/ml and the isotype control was used at 20 μg/ml. The concentrations used were based on results of dose response curves (data not shown).
The CD4^+ T-cells were cultured as above in 96-well plates with and without addition of exogenous Shh or 5E1. They were pulsed after 48 hr of anti-CD3/28 activation with 20 μl of ^3H-TdR (50 μCi/ml) (Amersham), harvested at 72 hr and read on a betaplate scintillation counter (Wallac UK, Milton Keynes, UK).
Purified peripheral CD4^+ T-cells were cultured with and without the addition of the biologically active amino terminal Shh peptide. An initial titration curve established that 500 ng/ml was the optimal dose of the Shh peptide to enhance proliferation of peripheral CD4^+ T-cells (data not shown), and this concentration was used in all subsequent experiments. Shh was added to CD4^+ T-cells that were resting, maximally stimulated with anti-CD3 (1 μg/ml) and anti-CD28 (5 μg/ml) antibodies or sub-optimally activated with anti-CD3 (0.25 μg/ml) and anti-CD28 (0.1 μg/ml).

Experiment [3] deals with CD4+ T-cells. The experiment can be described thus: Two-colour FACS analysis of CD69 and CD25 expression. It counts as cell-based. Conditions: CD4+ T-cells activated 72 hours with anti-CD3 and anti-CD28, Shh 100 ng/ml.
[4] abbreviates: Shh peptide at t=0, 24, 48, 72 hr.

In the case of “Shh peptide: Recombinant mouse Shh amino-terminal peptide (R&D systems); biologically active N-terminal Sonic hedgehog fragment”, in the experiment on CD4+ T-cells [1] (setting [4]), the “level of transcription of Gli1 vs media only activated cultures” value was “No difference” and the “level of transcription of ptc vs media only activated cultures” value was “No difference”. Moreover, the “transcription of Shh vs media only activated cultures” value in the experiment with CD4+ T-cells [1] (Shh peptide at t=0, 24 hr) is given as “significantly reduced”. Besides, in the experiment with CD4+ T-cells [1] (Shh peptide at t=0, 72 hr), the “transcription of bcl-2 vs media only activated cultures” value was “significantly increased”. For the same substance, in the experiment with CD4+ T-cells [1] (in presence of exogenous Shh), the “Bcl-2 transcripts, time course normalised to 24 hr sample” value is “increased at 48 hr and at 72 hr”; the “Gli1 transcription, time course normalised to 24 hr sample” value was “increased at 48 hr and was maintained at 72 hr”; the “Shh transcription, time course normalised to 24 hr sample” value is “increased both at 48 hr and 72 hr”. Moreover, the “ptc transcription, time course normalised to 24 hr sample” value with CD4+ T-cells [1] (in presence of exogenous Shh, 72 hr) is “marginally higher”. The “incorporation of 3H-thymidine” value in the experiment with human CD8 T-cells is listed as “significantly enhances”. In the experiment with CD4+ T-cells [2] (initial titration curve (data not shown)), the “optimal dose to enhance proliferation of peripheral CD4+ T-cells” value is 500 ng/mL. Also, in the experiment on CD4+ T-cells [2] (maximally stimulated (anti-CD3 1 μg/ml, anti-CD28 5 μg/ml), Shh peptide 500 ng/ml added at t=-24 hr or t=0), the “level of proliferation (3H-TdR incorporation)” value is on record as “no significant difference”. Also, the degree of proliferation result in the experiment on CD4+ T-cells [2] (resting CD4+ T-cells, Shh peptide 500 ng/ml) was “No significant difference”. The “increase in proliferation, range” value with CD4+ T-cells [2] (sub-optimal activation, Shh peptide 500 ng/ml 24 hr prior to activation) is reported as 16-63%. The “increase in proliferation, mean” value in the experiment with CD4+ T-cells [2] (sub-optimal activation, Shh peptide 500 ng/ml 24 hr prior to activation, n=3, p<0.04) was found to be 46%. The “increase in CD4+ T-cell proliferation, mean” value in the experiment with CD4+ T-cells [2] (sub-optimal activation, Shh peptide 500 ng/ml at t=0, 72 hr, p<0.01) was 101.6%. Also, the “increase in CD4+ T-cell proliferation, range” value with CD4+ T-cells [2] (sub-optimal anti-CD3 0.25 μg/ml, anti-CD28 0.1 μg/ml, Shh peptide 500 ng/ml at t=0, 72 hr) is listed as 76.2-128%. For the same substance, the “CD25 expression in CD3 positive T-cells” value with CD4+ T-cells [3] (activated only 31.64%) is listed as 80.46%. Also, the “CD69 expression in CD3 positive T-cells” value with CD4+ T-cells [3] (activated only 33.87%) was 70.57%.
